According to patent US12076301B2, “Engaging the cervical spinal cord circuitry to re-enable volitional control of hand function in tetraplegic subjects” (The Regents of the University of California, priority 2013, dated 2024):

Tested on: subjects with a chronic motor complete cervical injury
Experiment: Maximal handgrip strength (handgrip force measurement device) in tetraplegic subjects during pcEmc with oral buspirone
Type: in vivo, human
Protocol: Six subjects with chronic (18-36 months) spinal cord injury (SCI, traumatic cervical injury, ASIA B with no motor strength below the injury) were tested to determine if hand function can be improved by neuromodulating the cervical spinal cord. All subjects initially had minimal hand strength, a condition reflecting the majority of cervical SCI patients. Our experimental approach began with 6 weeks of baseline testing (Phase 1), followed by three 2-week treatment periods (Phases 2-4), and then by a period of approximately three months without any treatment at the end of which there was a final 2-week testing period (Phase 5). pcEmc at the C5 spinal segment (Phase 2) increased hand strength in 4/6 subjects compared to baseline Phase 1 (FIG. 1, panels A-G). […]
Voluntary motor control data were assessed using a handgrip force measurement device. […] The number of completed contraction-release sequences across the lines was determined. […] The percentage of data points that fell inside a circular window at a sampling of 15 Hz was determined. […]
The transcutaneous stimulation device is non-invasive. […] Varying combinations of these stimulation parameters were systematically assessed to obtain optimum facilitation of voluntary hand contraction by identification of the relative activation levels of the motor pools studied (data not shown). […]

## O=C1CC2(CCCC2)CC(=O)N1CCCCN1CCN(c2ncccn2)CC1 [buspirone]
After pcEmc plus fEmc (buspirone) treatment, 6 subjects, 7.5 mg buspirone twice daily for 2 weeks, oral
  Mean hand strength increase: greater than 300%
During buspirone treatment (Phase 3) with pcEmc at C5, number of subjects out of 6
  Subjects with increased hand strength compared to Phase 1 and 2: 4/6
